Active and inactive are the calls of the source. The rule behind the calls is not given here.
Legend:
SUM149PT [1] = test: Induction of cell cycle arrest in human SUM149PT cells assessed as accumulation of cells at S phase at 0.1 uM incubated for 48 hrs by propidium iodide/RNase A staining based flow cytometry (reference value: 18.7 %); format: functional
SUM149PT [2] = test: Induction of ROS in human SUM149PT cells assessed as increase in fluorescence intensity at 2 uM incubated for 48 hrs by DCFH-DA staining based confocal laser scanning microscopic analysis relative to niraparib; format: functional, cell-based
SUM149PT [3] = test: Induction of apoptosis in human SUM149PT cells assessed as necrotic cells at 0.5 uM incubated for 48 hrs by Annexin V-FITC/PI staining based flow cytometry (reference value: 0.51 %); format: functional
SUM149PT [4] = test: Induction of cell cycle arrest in human SUM149PT cells assessed as accumulation of cells at S phase at 0.1 uM incubated for 24 hrs by propidium iodide/RNase A staining based flow cytometry (reference value: 16.4 %); format: functional
SUM149PT [5] = test: Induction of apoptosis in human SUM149PT cells assessed as viable cells at 2 uM incubated for 24 hrs by Annexin V-FITC/PI staining based flow cytometry (reference value: 93.7 %); format: functional; details: read-out: Activity
SUM149PT [6] = test: Antiproliferative activity against human SUM149PT cells assessed as inhibition of cell growth incubated for 48 hrs by MTT assay; format: functional, cell-based
SUM149PT [7] = test: Induction of apoptosis in human SUM149PT cells assessed as upregulation of cleaved PARP expression incubated for 48 hrs by Western blotting analysis; format: functional, cell-based
SUM149PT [8] = test: Induction of cell cycle arrest in human SUM149PT cells assessed as accumulation of cells at S phase at 2 uM incubated for 48 hrs by propidium iodide/RNase A staining based flow cytometry (reference value: 18.7 %); format: functional
SUM149PT [9] = test: Induction of apoptosis in human SUM149PT cells assessed as viable cells at 0.1 uM incubated for 24 hrs by Annexin V-FITC/PI staining based flow cytometry (reference value: 93.7 %); format: functional; details: read-out: Activity
SUM149PT [10] = test: Induction of DNA double strand breaks in human SUM149PT cells assessed as increase in gamma-H2AX level incubated for 48 hrs by Western blotting analysis; format: functional, cell-based
SUM149PT [11] = test: Induction of cell cycle arrest in human SUM149PT cells assessed as accumulation of cells at G0/G1 phase at 0.1 uM incubated for 48 hrs by propidium iodide/RNase A staining based flow cytometry (reference value: 69.2 %); format: functional
SUM149PT [12] = test: Induction of cell cycle arrest in human SUM149PT cells assessed as accumulation of cells at G2/M phase at 0.1 uM incubated for 48 hrs by propidium iodide/RNase A staining based flow cytometry (reference value: […] %); format: functional
SUM149PT [13] = test: Induction of apoptosis in human SUM149PT cells assessed as late apoptotic cells at 0.5 uM incubated for 48 hrs by Annexin V-FITC/PI staining based flow cytometry (reference value: 1.13 %); format: functional
SUM149PT [14] = test: Induction of apoptosis in human SUM149PT cells assessed as early apoptotic cells at 0.5 uM incubated for 48 hrs by Annexin V-FITC/PI staining based flow cytometry (reference value: 2.28 %); format: functional
SUM149PT [15] = test: Antiproliferative activity against human SUM149PT cells assessed as inhibition of cell growth at 20 uM incubated for 48 hrs by MTT assay relative to control; format: functional
SUM149PT [16] = test: Induction of cell cycle arrest in human SUM149PT cells assessed as accumulation of cells at G0/G1 phase at 0.5 uM incubated for 48 hrs by propidium iodide/RNase A staining based flow cytometry (reference value: 69.2 %); format: functional
SUM149PT [17] = test: Induction of apoptosis in human SUM149PT cells assessed as necrotic cells at 0.5 uM incubated for 24 hrs by Annexin V-FITC/PI staining based flow cytometry (reference value: 1.27 %); format: functional
SUM149PT [18] = test: Induction of cell cycle arrest in human SUM149PT cells assessed as accumulation of cells at G2/M phase at 0.5 uM incubated for 48 hrs by propidium iodide/RNase A staining based flow cytometry (reference value: […] %); format: functional
SUM149PT [19] = test: Induction of apoptosis in human SUM149PT cells assessed as viable cells at 0.5 uM incubated for 48 hrs by Annexin V-FITC/PI staining based flow cytometry (reference value: 96.1 %); format: functional; details: read-out: Activity
SUM149PT [20] = test: Induction of apoptosis in human SUM149PT cells assessed as downregulation of BCL-2 expression incubated for 48 hrs by Western blotting analysis; format: functional, cell-based
SUM149PT [21] = test: Induction of apoptosis in human SUM149PT cells assessed as upregulation of BAX expression incubated for 48 hrs by Western blotting analysis; format: functional, cell-based
SUM149PT [22] = test: Induction of apoptosis in human SUM149PT cells assessed as early apoptotic cells at 0.1 uM incubated for 48 hrs by Annexin V-FITC/PI staining based flow cytometry (reference value: 2.28 %); format: functional
CAPAN-1 = test: Antiproliferative activity against human CAPAN-1 cells assessed as inhibition of cell growth incubated for 48 hrs by MTT assay; format: functional, cell-based; details: CAPAN-1, 48 h
Mitochondrial membrane [23] = test: Induction of mitochondrial membrane potential loss in human SUM149PT cells incubated for 48 hrs by JC-1 staining based confocal laser scanning microscopic analysis
SUM149PT [24] = test: Induction of apoptosis in human SUM149PT cells assessed as early apoptotic cells at 0.5 uM incubated for 24 hrs by Annexin V-FITC/PI staining based flow cytometry (reference value: 2.59 %); format: functional
Mitochondrial membrane [25] = test: Induction of mitochondrial membrane potential loss in human SUM149PT cells at 2 uM incubated for 48 hrs by JC-1 staining based confocal laser scanning microscopic analysis relative to niraparib
SUM149PT [26] = test: Induction of cell cycle arrest in human SUM149PT cells assessed as accumulation of cells at G0/G1 phase at 0.1 uM incubated for 24 hrs by propidium iodide/RNase A staining based flow cytometry (reference value: 72.8 %); format: functional
SUM149PT [27] = test: Induction of cell cycle arrest in human SUM149PT cells assessed as accumulation of cells at S phase at 2 uM incubated for 24 hrs by propidium iodide/RNase A staining based flow cytometry (reference value: 16.4 %); format: functional
SUM149PT [28] = test: Induction of apoptosis in human SUM149PT cells assessed as early apoptotic cells at 2 uM incubated for 48 hrs by Annexin V-FITC/PI staining based flow cytometry (reference value: 2.28 %); format: functional
SUM149PT [29] = test: Induction of apoptosis in human SUM149PT cells assessed as late apoptotic cells at 0.5 uM incubated for 24 hrs by Annexin V-FITC/PI staining based flow cytometry (reference value: 2.45 %); format: functional
SUM149PT [30] = test: Induction of apoptosis in human SUM149PT cells assessed as viable cells at 0.1 uM incubated for 48 hrs by Annexin V-FITC/PI staining based flow cytometry (reference value: 96.1 %); format: functional; details: read-out: Activity
SUM149PT [31] = test: Induction of cell cycle arrest in human SUM149PT cells assessed as accumulation of cells at G2/M phase at 0.1 uM incubated for 24 hrs by propidium iodide/RNase A staining based flow cytometry (reference value: 5.54 %); format: functional
[32] = target: Poly [ADP-ribose] polymerase 2 (Homo sapiens, UniProt Q9UGN5); test: Inhibition of PARP-2 in human SUM149PT cells incubated for 48 hrs by HRP-ELISA; format: cell-based
Poly [ADP-ribose] polymerase 2, sequence (Q9UGN5 whole entry): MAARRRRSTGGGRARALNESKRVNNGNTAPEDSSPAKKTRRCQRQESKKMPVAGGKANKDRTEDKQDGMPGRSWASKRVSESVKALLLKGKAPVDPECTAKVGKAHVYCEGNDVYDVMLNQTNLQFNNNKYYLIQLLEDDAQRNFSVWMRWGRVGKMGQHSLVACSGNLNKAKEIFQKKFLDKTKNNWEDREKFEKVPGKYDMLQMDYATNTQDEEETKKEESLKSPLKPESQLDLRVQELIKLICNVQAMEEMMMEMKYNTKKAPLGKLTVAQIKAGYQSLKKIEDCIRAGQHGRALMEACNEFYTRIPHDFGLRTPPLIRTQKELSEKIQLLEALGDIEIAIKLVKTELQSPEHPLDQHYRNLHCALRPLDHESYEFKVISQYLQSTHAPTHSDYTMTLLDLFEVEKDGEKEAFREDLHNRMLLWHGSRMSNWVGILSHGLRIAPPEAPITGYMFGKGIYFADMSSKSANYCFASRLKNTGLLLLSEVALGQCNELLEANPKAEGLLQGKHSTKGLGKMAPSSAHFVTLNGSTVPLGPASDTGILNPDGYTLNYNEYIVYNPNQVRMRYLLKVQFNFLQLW

Activity (Mitochondrial membrane [23]): Dose-dependent-effect
Activity (Mitochondrial membrane [25]): Active
IC50 [32]: 6.45 nM
SMILES: COc1cccc(-c2cc3cc(F)cc(C(N)=O)c3oc2=O)c1
Activity (SUM149PT [1]): 45.4%
Activity (SUM149PT [2]): Active
Activity (SUM149PT [3]): 11.9%
Activity (SUM149PT [4]): 33.2%
viability at 2 µM (SUM149PT [5]): 76.7%
IC50 (SUM149PT [6]): 620 nM
Activity (SUM149PT [7]): Dose-dependent-effect
Activity (SUM149PT [8]): 18.5%
viability at 0.1 µM (SUM149PT [9]): 91.5%
Activity (SUM149PT [10]): Dose-dependent-effect
Activity (SUM149PT [11]): 25.9%
Activity (SUM149PT [12]): 29.1%
Activity (SUM149PT [13]): 13.5%
Activity (SUM149PT [14]): 13.4%
inhibition at 20 µM (SUM149PT [15]): > 80%
Activity (SUM149PT [16]): 38.3%
Activity (SUM149PT [17]): 2.31%
Activity (SUM149PT [18]): 36.7%
viability at 0.5 µM (SUM149PT [19]): 61.3%
Activity (SUM149PT [20]): Dose-dependent-effect
Activity (SUM149PT [21]): Dose-dependent-effect
Activity (SUM149PT [22]): 5.45%
IC50 (CAPAN-1): 4260 nM
Activity (SUM149PT [24]): 5.61%
Activity (SUM149PT [26]): 59.5%
Activity (SUM149PT [27]): 22.3%
Activity (SUM149PT [28]): 29.6%
Activity (SUM149PT [29]): 5.48%
viability at 0.1 µM (SUM149PT [30]): 87.3%
Activity (SUM149PT [31]): 6.91%

From ChEMBL document CHEMBL6074623, “Carbamoylation at C-8 position of natural 3-arylcoumarin scaffold for the discovery of novel PARP-1 inhibitors with potent anticancer activity” (Eur J Med Chem, 2024)
